US5998377A, “Means for treating prostate cancer” (ASTA Medica Aktiengesellschaft, priority 1998, dated 1999)
Non-standard residues stand in square brackets, D forms with d. Residues, ends and D or L forms follow the SMILES beside them. dPhe(4-Cl) = N[C@H](Cc1ccc(Cl)cc1)C(=O)O; d2Nal = N[C@H](Cc1ccc2ccccc2c1)C(=O)O; dCit = NC(=O)NCCC[C@@H](N)C(=O)O; d3Pal = N[C@H](Cc1cccnc1)C(=O)O

Assays:
[1] = system: BPH patients; experiment: Clinical therapy of BPH with Cetrorelix (Example 1); type: in vivo, human; settings: therapy regimen of 4 to 8 weeks
Description: The invention will be explained in detail using the following clinical results:
Cetrorelix is administered in a dose of 0.5 mg to 2 mg daily for 4 to 8 weeks for the therapy of BPH. A dose of 5 mg to 30 mg, dispensed once per week or every 10 days also over a time period of 4 to 8 weeks as well as one every two weeks or one injection per month of 20 mg to 60 mg can also decisively improve the clinical symptoms and signs. […] The prostate volume decreases by 20 to 40% during the treatment time of 4 to 8 weeks. […] In addition, at least 30% of the patients achieve an improvement of the urine flow of 6 ml/sec with this therapy. This is almost equivalent to an improvement like that associated with the golden standard operation, and in considerably shorter time. […] These clinical benefits continue for at least 3 to 6 months after therapy. This allows a long-term therapy of BPH with only an intermittent treatment of 2 to max. 4 injection cycles over 4 to 8 weeks.

[2] = system: BPH patients; settings: cited from earlier work
[3] = system: prostate carcinoma patients; settings: cited from earlier work
[4] = BPH patients, 500 μg every 12 hours for 4 weeks
[5] = prostate carcinoma patients, end of the 6 weeks of therapy

CC(=O)N[C@H](Cc1ccc2ccccc2c1)C(=O)N[C@H](Cc1ccc(Cl)cc1)C(=O)N[C@H](Cc1cccnc1)C(=O)N[C@@H](CO)C(=O)N[C@@H](Cc1ccc(O)cc1)C(=O)N[C@H](CCCNC(N)=O)C(=O)N[C@@H](CC(C)C)C(=O)N[C@@H](CCCNC(=N)N)C(=O)N1CCC[C@H]1C(=O)N[C@H](C)C(N)=O [Cetrorelix] (Ac-[d2Nal][dPhe(4-Cl)][d3Pal]SY[dCit]LRP[dA]-NH2)
increase of the peak flow of the urine [1]: approximately 3 ml/sec | patients achieving an improvement of the urine flow of 6 ml/sec [1]: at least 30% | quality of life [1]: significant improvements as regards quality of life | sexual performance [1]: No limitations in sexual performance are observed | testosterone decrease [1]: Submaximal decreases of testosterone occur, but these are above those levels associated with castration | testosterone levels, initially ([2]; BPH patients (all patients), 500 μg every 12 hours, initially): lowering in testosterone levels to a castration level | prostate volume [2, 4]: a decrease in prostate volume | symptoms of dysuria [2, 4]: distinct decrease of the symptoms of dysuria | testosterone levels during treatment ([2]; BPH patients, 500 μg every 12 hours for 4 weeks, no castration values during the last three weeks): fluctuated at subnormal levels | testosterone levels, initially ([3]; prostate carcinoma patients (all patients), 500 μg every 12 hours, initially): lowering in testosterone levels to a castration level | overall condition of the patient [3, 5]: considerable improvement | testosterone values at the end of therapy [3, 5]: at the castration levels
